Measurements: patent publication US9949972B2, “Combinations of histone deacetylase inhibitors and immunomodulatory drugs” (Acetylon Pharmaceuticals, Inc., priority 2013, dated 2018)

What was measured:
HDAC6 = biological target: T1, HDAC6 (Homo sapiens, UniProt Q9UBN7); assay: HDAC enzyme assays (selectivity); type: biochemical; conditions: HDAC6 vs class I HDACs
T1 construct: purchased BPS Biosciences
T1 sequence (Q9UBN7 1-1215): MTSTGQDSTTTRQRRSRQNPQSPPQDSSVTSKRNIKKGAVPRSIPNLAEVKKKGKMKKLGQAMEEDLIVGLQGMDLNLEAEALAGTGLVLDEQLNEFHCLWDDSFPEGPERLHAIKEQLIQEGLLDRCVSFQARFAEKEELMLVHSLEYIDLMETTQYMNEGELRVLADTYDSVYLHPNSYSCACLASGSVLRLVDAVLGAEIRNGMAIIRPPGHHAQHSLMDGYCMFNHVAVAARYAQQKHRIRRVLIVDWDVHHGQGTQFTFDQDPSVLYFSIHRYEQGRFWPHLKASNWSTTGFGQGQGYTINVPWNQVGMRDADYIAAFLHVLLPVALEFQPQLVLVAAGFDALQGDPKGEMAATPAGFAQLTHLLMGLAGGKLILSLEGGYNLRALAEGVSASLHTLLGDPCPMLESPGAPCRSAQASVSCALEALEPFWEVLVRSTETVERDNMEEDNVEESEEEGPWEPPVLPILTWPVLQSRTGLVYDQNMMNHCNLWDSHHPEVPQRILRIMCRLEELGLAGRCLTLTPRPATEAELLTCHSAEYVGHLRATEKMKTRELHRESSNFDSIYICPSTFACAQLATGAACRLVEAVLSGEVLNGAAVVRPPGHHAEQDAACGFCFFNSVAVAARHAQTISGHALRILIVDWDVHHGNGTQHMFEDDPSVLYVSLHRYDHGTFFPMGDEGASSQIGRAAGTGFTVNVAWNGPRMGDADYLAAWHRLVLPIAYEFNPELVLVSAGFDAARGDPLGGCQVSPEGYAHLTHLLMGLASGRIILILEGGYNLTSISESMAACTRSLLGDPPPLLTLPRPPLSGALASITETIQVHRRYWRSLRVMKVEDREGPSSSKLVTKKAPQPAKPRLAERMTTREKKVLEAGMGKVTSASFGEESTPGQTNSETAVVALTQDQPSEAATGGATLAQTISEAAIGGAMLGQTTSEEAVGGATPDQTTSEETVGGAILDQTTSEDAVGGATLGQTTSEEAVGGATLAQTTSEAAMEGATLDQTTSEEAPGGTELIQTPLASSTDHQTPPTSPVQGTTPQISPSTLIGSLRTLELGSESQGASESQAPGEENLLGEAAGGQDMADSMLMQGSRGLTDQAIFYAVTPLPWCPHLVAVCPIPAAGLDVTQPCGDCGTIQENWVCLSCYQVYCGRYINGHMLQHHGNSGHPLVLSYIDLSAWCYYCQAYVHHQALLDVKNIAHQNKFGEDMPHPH
Method: Compounds for testing were diluted in DMSO to 50 fold the final concentration and a ten point three fold dilution series was made. The compounds were diluted in assay buffer (50 mM HEPES, pH 7.4, 100 mM KCl, 0.001% Tween-20, 0.05% BSA, 20 μM TCEP) to 6 fold their final concentration. The HDAC enzymes (purchased from BPS Biosciences) were diluted to 1.5 fold their final concentration in assay buffer. The tripeptide substrate and trypsin at 0.05 μM final concentration were diluted in assay buffer at 6 fold their final concentration. The final enzyme concentrations used in these assays were 3.3 ng/ml (HDAC1), 0.2 ng/ml (HDAC2), 0.08 ng/ml (HDAC3) and 2 ng/ml (HDAC6). […] Five μl of compound and 20 μl of enzyme were added to wells of a black, opaque 384 well plate in duplicate. Enzyme and compound were incubated together at room temperature for 10 minutes. Five μl of substrate was added to each well, the plate was shaken for 60 seconds and placed into a Victor 2 microtiter plate reader. The development of fluorescence was monitored for 60 min and the linear rate of the reaction was calculated. The IC50 was determined using Graph Pad Prism by a four parameter curve fit.

[1] = tested on: Jeko1 mantle cell lymphoma cells; assay: Cell cycle inhibition, Jeko1 cells; type: cell-based; conditions: 4 days, Compound B 2 μM, Lenalidomide 2 μM, Pomalidomide 1 μM
[2] = tested on: Mino mantle cell lymphoma cells; assay: Cell cycle inhibition, Mino cells; type: cell-based; conditions: 4 days, Compound A or B 2 μM, Lenalidomide 2 μM, Pomalidomide 1 μM

| SMILES | selectivity for HDAC6 over class I HDAC's (HDAC6) | cell cycle progression [1] | cell cycle progression [2] |
| --- | --- | --- | --- |
| O=C(NO)c1cnc(NC2(c3cccc(F)c3)CCCCC2)nc1 [Compound C, 2-((1-(3-fluorophenyl)cyclohexyl)amino)-N-hydroxypyrimidine-5-carboxamide] | more than 300 fold |  |  |
| O=C(CCCCCCNC(=O)c1cnc(N(c2ccccc2)c2ccccc2Cl)nc1)NO [Compound B, 2-((2-chlorophenyl)(phenyl)amino)-N-(7-(hydroxyamino)-7-oxoheptyl)pyrimidine-5-carboxamide] |  | decreased cell cycle progression | decreased cell cycle progression |
| O=C(CCCCCCNC(=O)c1cnc(N(c2ccccc2)c2ccccc2)nc1)NO [Compound A, 2-(diphenylamino)-N-(7-(hydroxyamino)-7-oxoheptyl)pyrimidine-5-carboxamide] | approximately 11 fold |  | decreased cell cycle progression |
